These results are taken from patent US10035806B2, “Derivatized corroles and metallocorroles and their use as imaging and therapeutic agents” (CALIFORNIA INSTITUTE OF TECHNOLOGY, priority 2015, dated 2018).

Data set [1] has as its system DU-145, SK-MEL-28, MDA-MB-231, OVCAR-3. The data set is described as follows: Uptake of gallium corroles (ImageXpress confocal), cell lines taken together. Particulars: 30 μM. The class given is cell-based, human. On the procedure: The intracellular uptake of gallium corroles was quantified using the ImageXpressultra laser point-scanning confocal microscope (Molecular Devices). The fluorescence image acquisition settings were as previously reported (Lim P, et al. (2012), Chem Res Toxicol 25(2):400-409.). Cells (DU-145, SK-MEL-28, MDA-MB-231, and OVCAR-3) were seeded in 96-well dishes (8×10^3 cells per well in 0.1 mL) and allowed to attach overnight. Complex 1, 2, 3, or 4 was added directly to cell media at 30 μM final concentration or media only control, and incubated for 0.25, 1, 3, or 24 h at 37° C. in the dark under a 5% CO2 atmosphere. Cells were fixed and labeled in situ with WGA-Alexa Fluor 488 conjugate and DAPI to allow for the identification of cell boundary and nucleus, respectively. The quantification of blue (DAPI) fluorescence signals in each sample yielded the total number of cells in that population. Corresponding determination of red (corrole) fluorescence within each cell, corrected for background fluorescence from untreated cells, provided the number of cells containing corroles. For each corrole concentration at various time points, fluorescence data were obtained for 1,000-22,000 individual cells. Data acquisitions and analyses were performed as described (Lim P, et al. (2012), Chem Res Toxicol 25(2):400-409). The percentage of corrole-positive cells and the median fluorescence intensity (median RFU) for each treatment were plotted in a three-axis graph using Microsoft Office Excel 2007 (Microsoft Corporation).
To quantify the kinetics of intracellular uptake and accumulation of each derivative, ImageXpressultra, a laser point-scanning confocal microscope, was used for analyses. […] Cells were incubated at 37° C. in the dark for 0.25, 1, 3, or 24 h. […] Within 15 min, Complex 4 fluorescence was observable in ˜80% of ovarian cancer cells, 97% of breast cancer cells, and >99% of prostate cancer and melanoma cells, whereas up to 3 and 24 h were required to label >80% of cells from all four cancer lines with Complexes 3 and 2, respectively. […]

The test system of another data set is DU-145. The data set is described as follows: MTS assay (cytotoxicity). To be noted: for IC50: DU-145 (prostate), 72 h exposure in the dark, MTS assay, mean of three experiments. The class given is cell-based, human. The source says:
(§1) Reagents were obtained from the indicated suppliers: HBSS without phenol red and trypsin-EDTA (0.25%), Invitrogen/Gibco; PBS, Mediatech; 4′,6-diamidino-2-phenylindole dihydrochloride (DAPI) and DMSO, Sigma-Aldrich; paraformaldehyde, Electron Microscopy Sciences; WGA, Alexa Fluor 488 conjugate, Invitrogen/Molecular Probes; and ProLong Gold Antifade Mountant with DAPI, Life Technologies. Human Cancer Cell Lines. Four cell lines from the NCI60 cell panel (Shoemaker RH (2006) The NCI60 human tumour cell line anticancer drug screen. Nat Rev Cancer 6(10):813-823) representing four distinct tumor types were used in this study: DU-145, prostate; MDA-MB-231, breast; SK-MEL-28, melanoma; and OVCAR-3, ovarian. Cells were grown in RPMI 1640 cell culture medium (Mediatech) containing 2 mM L-glutamine, supplemented with 10% FBS (Omega Scientific), and maintained at 37° C. under 5% CO2 in a humidified incubator.
(§2) At the time of drug treatment, stock solutions of 1-4 were diluted to 10-fold the desired final test concentrations with RPMI medium 1640. Aliquots of […] of these diluted solutions were added to the appropriate microtiter wells containing 90 μL of medium, resulting in the required final drug concentrations (eight concentrations per compound, ranging from 0.3 to 600 μM). The final concentration of DMSO in test culture was <1%. […] Following 72 h of exposure at 37° C., cell viability was determined using the MTS assay (CellTiter 96 Aqueous One Cell Proliferation Assay; Promega) according to the manufacturer's instructions. Absorbances were measured using a microplate reader (Synergy 4; Biotek Instruments) at 490 nm. Experiments were performed in triplicate and each dose-response curve represents the mean of three or more independent experiments. Spectrophotometric data were analyzed by sigmoid dose-response, nonlinear regression analysis; the IC50, Emax values, and associated SE were calculated using GraphPad Prism 6 (GraphPad Software).
(§3) The effects of bis-sulfonate, carboxylate, and aminocaproate ring substituents on gallium corrole cytotoxicities were examined using four human cancer cell lines, representing tumors of different origin selected based on previously described sensitivities.
For orientation: Formazan colour is commonly taken as a measure of viable cells.

Another data set has as its system OVCAR-3. The data set is described as follows: MTS assay (cytotoxicity). The class given is cell-based, human. Particulars: OVCAR-3 (ovarian), 72 h exposure in the dark, mean of three experiments.
Description: as §1, §2, §3

Another data set deals with MDA-MB-231. The data set is described as follows: MTS assay (cytotoxicity). The class given is cell-based, human. To be noted: MDA-MB-231 (breast), 72 h exposure in the dark, mean of three experiments.
Description: as §1, §2, §3

In another data set the test system is SK-MEL-28. The data set is described as follows: MTS assay (cytotoxicity). The class given is cell-based, human. To be noted: SK-MEL-28 (melanoma), 72 h exposure in the dark, mean of three experiments.
Description: as §1, §2, §3

The next data set deals with human cancer cells. Particulars: previous work, cited from earlier work.
Another data set relates to murine model animals. Particulars: previous work; cited from earlier work.
In a further data set the test system is MDA-MB-231 cells. Particulars: literature values, read-out: IC50 reported for cisplatin; cited from earlier work.

“And” between values parts separate entries of the source, which are not always exact repeats. Equal values may be shown once.

For `Fc1c(F)c(F)c(C2=C3C=CC4=[N+]3[Ga-]35[n]6c2ccc6C(c2c(F)c(F)c(F)c(F)c2F)=c2ccc([n]23)=C(c2c(F)c(F)c(F)c(F)c2F)c2ccc4[n]25)c(F)c1F` (stereo not shown) [Complex 1, gallium(III) tris(pentafluorophenyl)corrole], the “time required for significant uptake (≥80% cells)” value in data set [1] (melanoma, ovarian, and breast cancer cell lines) is 24 h. For the same compound, the half-maximal inhibitory concentration (IC50) (usually the concentration needed to halve the response being measured) turned out to be 135 µM in the data set with DU-145, 58.1 µM with OVCAR-3, 101 µM in the data set on MDA-MB-231 and 61.3 µM in the data set on SK-MEL-28.

`O=S(=O)(O)C1=CC2=C(c3c(F)c(F)c(F)c(F)c3F)c3ccc4[n]3[Ga-]35[n]6c(cc(S(=O)(=O)O)c6C(c6c(F)c(F)c(F)c(F)c6F)=c6ccc([n]63)=C4c3c(F)c(F)c(F)c(F)c3F)C1=[N+]25` (stereo not shown) [Complex 2]: the “time required to label >80% of cells from all four cancer lines” value in data set [1] (37° C., dark) is recorded as at most 24 h. Also, in the data set with human cancer cells (human cancer cells), the “antitumor activity in vitro” value is “potent antitumor activity”. In addition, the “mechanism of cytotoxicity: cell cycle effect” value in the data set on human cancer cells (numerous cancer cell lines in vitro) is listed as “induce cell cycle arrest at late M phase”. Besides, the “antitumor activity in vivo” value with murine model animals is given as “potent antitumor activity”. Besides, the IC50 in the data set on DU-145 was found to be 159 µM; in the data set on DU-145 (listed as 2), 159 µM; in the data set on OVCAR-3 it was 274 µM; with MDA-MB-231, 129 µM; in the data set on SK-MEL-28 it was 131 µM.

As to `O=C(O)C1=CC2=[N+]3C1=C(c1c(F)c(F)c(F)c(F)c1F)c1ccc4[n]1[Ga-]31[n]3c(ccc32)C(c2c(F)c(F)c(F)c(F)c2F)=c2ccc([n]21)=C4c1c(F)c(F)c(F)c(F)c1F` (stereo not shown) [Complex 4], the 50% inhibitory concentration (IC50) was found to be 12.9 µM in the data set on DU-145, 11.1 µM with OVCAR-3, 15.3 µM in the data set with MDA-MB-231 and 4.8 µM in the data set with SK-MEL-28. In addition, in the data set on DU-145 (DU-145, 72 h, MTS), the “IC50 lower than bis-sulfonated Complex 2” value was −12 fold.

`COc1ccc(C2=c3ccc4[n]3[Mn-]35[n]6c(ccc62)C(c2cc[n+](C)cc2)=C2C=CC(=[N+]23)c2ccc([n]25)C=4c2cc[n+](C)cc2)cc1` (stereo not shown) [Complex 5]: the “effect of pyridinium substitution (in place of bis-sulfonic acids) on uptake, activity, toxicity” value with human cancer cells was “improve uptake and activity”.

`C[n+]1ccccc1C1=C2C=CC3=[N+]2[Mn-]24[n]5c1ccc5C(c1cccc[n+]1C)=c1ccc([n]12)=C(c1cccc[n+]1C)c1ccc3[n]14` (stereo not shown) [Complex 6]: in the data set on human cancer cells, the “effect of pyridinium substitution (in place of bis-sulfonic acids) on uptake, activity, toxicity” value is recorded as “completely ablated toxicity”.

Turning to `N.N.[Cl][Pt][Cl]` [cisplatin], the 50% inhibitory concentration (IC50) in the data set on MDA-MB-231 cells was 46.4 µM and 39 µM.
